Source: patent publication US9624477B2 (priority 2004, dated 2017)

Tested on: Pi-omega3Des
Type: cell-based, Phytophthora infestans
Settings: FIG. 9; for desaturation of phospholipid-bound fatty acid (sn1 or sn2 position): fatty acids bound in phospholipids; for phospholipid converted by ω-3-desaturase: desaturation products also found in the neutral lipids

Compound | desaturation of phospholipid-bound fatty acid (sn1 or sn2 position) | phospholipid converted by ω-3-desaturase
CCCCC/C=C\C/C=C\C/C=C\C/C=C\CCCC(=O)O [arachidonic acid, reference compound] | desaturation of phospholipid-bound arachidonic acid to EPA | –
phosphatidylinositol | – | converts
phosphatidylethanolamine | – | converts
phosphatidylcholine | – | converts
CCCCC/C=C\C/C=C\C/C=C\CCCCCCC(=O)O [C20:3 ω-6-fatty acid, dihomo-γ-linolenic acid, reference compound] | does not differentiate between fatty acids bound at the sn1 or sn2 position | –
